According to patent publication US10718770B2, “Methods for screening compounds for treating or preventing a viral infection or a virus-related condition” (ABIVAX, priority 2015, dated 2020):

Experiments:
[1] = system: alternative splicing events of endogenous genes; test: RT-PCR analysis of global alternative splicing events in PBMC samples; assay type: cell-based, human
Description: Quantification of non-viral RNA splicing is achieved using the protocols detailed in Klinck et al. (Multiple alternative splicing markers for ovarian cancer. Cancer Res. 68, 657-663 (2008)) and Venables et al. (Cancer-associated regulation of alternative splicing. Nat. Struct. Mol. Biol. 16, 670-676 (2009)).
These 382 alternative splicing events (ASEs) represent a high throughput random snapshot of global alterations of alternative splicing. High throughput PCR analysis of these (essentially random) 382 ASEs on multiple PBMC samples was performed, either from untreated (cells) or treated with DMSO, Compound 1 or with the control antiviral drug (Darunavir). Analysis of the data allowed further stringent quality controls; ASEs were only considered if >75% of the products ran at the expected mobilities (i.e. if the reactions were pure) and if total expected PCR concentration was higher than 20 nM (i.e. if the reactions were strong) which led to 264 remaining ASEs.

[2] = Lymphocyte populations in engrafted humanized mice treated for 30 days; assay type: in vivo; conditions: one month, 20 mg/kg or 40 mg/kg, compared to controls without treatment
Protocol: (§1) FIG. 7. Efficacy of Compound 1 to inhibit viral replication in humanized mice. A) Reconstituted SCID mice were infected with JRCSF HIV-1 strain by intraperitoneal injection. Control group received by gavage labrafil and 5% DMSO (n=15) and treated group 20 mg/kg b.i.d of Compound 1 in labrafil and 5% DMSO (n=14) for 15 days. Two independent experiments were performed with 5 and 10 reconstituted mice for each group. Viral load was assessed by measuring viral RNA using the Amplicor HIV-1 Monitor from Roche. B) FACS analysis was performed on peritoneal wash at day 15 post-treatment to assess the CD8/CD4 ratio. C) Engrafted NSG humanized mice were treated by oral gavage with Compound 1 at either 20 mg or 40 mg/kg once a day for 30 days and indicated lymphocyte populations (CD45+; CD4+ and CD8+) were monitored by FACS analysis. […] Viral load was assessed by measuring viral RNA using the Amplicor HIV-1 Monitor from Roche. […]
(§2) Briefly, newborn (<5 days old) NSG mice received sub-lethal (1 Gy) total body irradiation with a Cs source, and then received […] transduced or untransduced CD34+ human HSCs using a 50 μl Hamilton syringe via the intrahepatic (i.h.) route. […] Mice were monitored three times a week for symptoms or signs of adverse events, according to a standard score sheet. […]

[3] = system: YU2 HIV-1 virus; test: Humanized mice infected with YU2 HIV-1 virus, viral load; assay type: in vivo, mouse (NSG humanized); conditions: after 30 days of 40 mg/kg daily
Protocol: as §1, §2

Which “global effect on pre-mRNA splicing” value [1] does the source give for `FC(F)(F)Oc1ccc(Nc2ccc3cccc(Cl)c3n2)cc1` [Compound 1, 8-chloro-N-(4-(trifluoromethoxy)phenyl)quinolin-2-amine] here?
Its value is “no global effect”.

And the “engraftment values of CD45+ cells and ratio of CD8+/CD4+” value [2]?
Its value is “neither alters engraftment values of CD45+ cells nor the ratio of CD8+/CD4+”.

What about the “time the viral load remained low after treatment termination” value [3] of the same compound?
The value was “at least 50 days”.
